Data published in patent publication US20120035187A1 (priority 2009, published 2012).

The compounds below were run on PC12-HS cells (assay: Evaluation B: neurite-outgrowth action in presence of NGF). Details: 50 μl of 400 ng/ml test sample solution per well + NGF final 5 ng/ml, 3 days.
Type: cell-based, rat

Structure (SMILES) | Evaluation B: Neurite-outgrowth action
CCN1/C(=C/c2cc[n+](CC)c3ccccc23)Sc2ccccc21.[I-] [NK-750] | ∘ (The test sample with a neurite outgrowth rate of 30% or higher was judged to be equivalent or more (∘) compared with NK-4)
CCN1/C(=C/c2oc3ccccc3[n+]2CC)Sc2ccccc21.[I-] [NK-1049] | ∘ (The test sample with a neurite outgrowth rate of 30% or higher was judged to be equivalent or more (∘) compared with NK-4)
CCN1/C(=C/C=C/c2sc3ccc4ccccc4c3[n+]2CC)Sc2ccc3ccccc3c21.[I-] [NK-382] | ∘ (The test sample with a neurite outgrowth rate of 30% or higher was judged to be equivalent or more (∘) compared with NK-4)
CCN1C(C)=CS/C1=C\C=C\c1scc(C)[n+]1CC [NK-67] | ∘ (The test sample with a neurite outgrowth rate of 30% or higher was judged to be equivalent or more (∘) compared with NK-4)
CC[n+]1ccc(/C=C/c2ccc3c(c2)OCO3)c2ccccc21.[I-] [NK-629] | ∘ (The test sample with a neurite outgrowth rate of 30% or higher was judged to be equivalent or more (∘) compared with NK-4)
CCN1/C(=C/c2cc[n+](CC)c3ccccc23)C=Cc2ccccc21.[I-] [NK-276] | ∘ (The test sample with a neurite outgrowth rate of 30% or higher was judged to be equivalent or more (∘) compared with NK-4)
CCCCCN1/C(=C/C2=[N+](C)c3ccccc3C2(C)C)C(C)(C)c2ccccc21.[O-][Cl+3]([O-])([O-])[O-] [NK-3206] | ∘ (The test sample with a neurite outgrowth rate of 30% or higher was judged to be equivalent or more (∘) compared with NK-4)
CCN1/C(=C/c2ccc3ccccc3[n+]2CC)C=Cc2ccccc21.[Br-] [NK-1046] | ∘ (The test sample with a neurite outgrowth rate of 30% or higher was judged to be equivalent or more (∘) compared with NK-4)
CC[n+]1c(/C=C/C=C/c2ccc(N(C)C)cc2)sc2ccccc21.[I-] [NK-375] | ∘ (The test sample with a neurite outgrowth rate of 30% or higher was judged to be equivalent or more (∘) compared with NK-4)
CC(C)CC[n+]1ccc(/C=C/c2ccc(N(C)C)cc2)c2ccccc21.[I-] [NK-282] | ∘ (The test sample with a neurite outgrowth rate of 30% or higher was judged to be equivalent or more (∘) compared with NK-4)
CC[n+]1c(/C=C/c2ccc(N(C)C)cc2)[se]c2ccccc21.[I-] [NK-1055] | ∘ (The test sample with a neurite outgrowth rate of 30% or higher was judged to be equivalent or more (∘) compared with NK-4)
CN1/C(=C/c2oc3ccccc3[n+]2C)Oc2ccccc21.[I-] [NK-87] | ∘ (The test sample with a neurite outgrowth rate of 30% or higher was judged to be equivalent or more (∘) compared with NK-4)
CCN1/C(=C/C=C/c2oc3ccccc3[n+]2CC)Oc2ccccc21.[I-] [NK-85] | ∘ (The test sample with a neurite outgrowth rate of 30% or higher was judged to be equivalent or more (∘) compared with NK-4)
CCCCN1C(C)=CS/C1=C\c1scc(C)[n+]1CCCC.[I-] [NK-399] | ∘ (The test sample with a neurite outgrowth rate of 30% or higher was judged to be equivalent or more (∘) compared with NK-4)
CCCC[n+]1c(C=Cc2ccc(N(C)C)cc2)sc2ccccc21.[I-] [NK-490] | ∘ (The test sample with a neurite outgrowth rate of 30% or higher was judged to be equivalent or more (∘) compared with NK-4)
CCN1/C(=C/c2sc3ccccc3[n+]2CC)Sc2ccccc21.[Br-] [NK-1560] | ∘ (The test sample with a neurite outgrowth rate of 30% or higher was judged to be equivalent or more (∘) compared with NK-4)

Same assay, conditions: 50 μl/well of 2 μg/ml test solution + NGF final 5 ng/ml, 3 days

Structure (SMILES) | Percentage (%) of cells with neurite outgrowth
CCCCN1C(C)=CS\C1=C/C=C(\C=C\c1scc(C)[n+]1CCCC)c1scc(C)[n+]1CCCC.[Cl-].[Cl-] [NK-56] | 28%
